Results published in patent publication US10980889B1 (Revolution Medicines, Inc., priority 2018, dated 2021).

Tests used:
P-P70S6K (T389) = experiment: Cell based AlphaLISA assay, inhibition of P-P70S6K (T389) in MDA-MB-468 cells (mTORC1 substrate); conditions: Homo sapiens, 4 h, AlphaLisa, two to four hours at 37° C., read-out: pIC50 for Inhibition of mTORC1 and mTORC2 Substrate Phosphorylation p-P70S6K-(T389) (converted)
Summary of the method: (§1)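 In MDA-MB-468 cells, phosphorylation of 4EBP1 (Thr37/46), P70S6K (Thr389) and AKT (Ser473) was measured after incubation with inhibitor by AlphaLISA SureFire Ultra on cell lysates, in duplicate. IC50 values came from control-normalized concentration-response regression.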

P-4E-BP1 (T37/46) = experiment: Cell based AlphaLISA assay, inhibition of P-4E-BP1 (T37/46) in MDA-MB-468 cells (mTORC1 substrate); conditions: Homo sapiens, 4 h, AlphaLisa, two to four hours at 37° C., read-out: pIC50 for Inhibition of mTORC1 and mTORC2 Substrate Phosphorylation P-4E-BP1-(T37/46) (converted)
Summary of the method: as §1

P-Akt (S473) = experiment: Cell based AlphaLISA assay, inhibition of P-Akt (S473) in MDA-MB-468 cells (mTORC2 substrate); conditions: Homo sapiens, 4 h, AlphaLisa, two to four hours at 37° C., read-out: pIC50 for Inhibition of mTORC1 and mTORC2 Substrate Phosphorylation p-AKT1/2/3-(S473) (converted)
Summary of the method: as §1

| SMILES | IC50 (P-P70S6K (T389)) | IC50 (P-4E-BP1 (T37/46)) | IC50 (P-Akt (S473)) |
| --- | --- | --- | --- |
| CO[C@H]1C[C@@H]2CC[C@@H](C)[C@@](O)(O2)C(=O)C(=O)N2CCCC[C@H]2C(=O)O[C@H]([C@H](C)C[C@@H]2CC[C@@H](OC(=O)N3CCc4nc(N5CCN(CCOCCN6CCN(c7ncc(C(=O)N8CCc9cc(Cn%10nc(-c%11ccc%12oc(N)nc%12c%11)c%11c(N)ncnc%11%10)ccc9C8)cn7)CC6)CC5)ncc4C3)[C@H](OC)C2)C[C@@H](OC)[C@H](C)/C=C(\C)[C@@H](O)[C@@H](OC)C(=O)[C@H](C)C[C@H](C)/C=C/C=C/C=C/1C [Example 129] | < 1 nM | < 3.16 nM | > 1000 nM |
| CO[C@H]1C[C@@H]2CC[C@@H](C)[C@@](O)(O2)C(=O)C(=O)N2CCCC[C@H]2C(=O)O[C@H]([C@H](C)C[C@@H]2CC[C@@H](OC(=O)NCc3cnc(N4CCN(CCOCCN5CCN(c6ncc(C(=O)N7CCc8cc(Cn9nc(-c%10ccc%11[nH]ccc%11c%10)c%10c(N)ncnc%109)ccc8C7)cn6)CC5)CC4)nc3)[C@H](OC)C2)CC(=O)[C@H](C)/C=C(\C)[C@@H](O)[C@@H](OC)C(=O)[C@H](C)C[C@H](C)/C=C/C=C/C=C/1C [Example 130] | < 1 nM | < 3.16 nM | > 1000 nM |
| CO[C@H]1C[C@@H]2CC[C@@H](C)[C@@](O)(O2)C(=O)C(=O)N2CCCC[C@H]2C(=O)O[C@H]([C@H](C)C[C@@H]2CC[C@@H](OC(=O)N3CCc4nc(N5CCN(CCOCCN6CCN(c7ncc(C(=O)N8CCc9cc(Cn%10nc(-c%11ccc%12[nH]ccc%12c%11)c%11c(N)ncnc%11%10)ccc9C8)cn7)CC6)CC5)ncc4C3)[C@H](OC)C2)CC(=O)[C@H](C)/C=C(\C)[C@@H](O)[C@@H](OC)C(=O)[C@H](C)C[C@H](C)/C=C/C=C/C=C/1C [Example 131] | < 1 nM | < 3.16 nM | 3.16 to 31.6 nM |
| CO[C@H]1C[C@@H]2CC[C@@H](C)[C@@](O)(O2)C(=O)C(=O)N2CCCC[C@H]2C(=O)O[C@H]([C@H](C)C[C@@H]2CC[C@@H](OC(=O)NCc3cnc(N4CCN(C(=O)CCOCCN5CCN(C(=O)CCC(=O)N6CCc7cc(Cn8nc(-c9ccc%10oc(N)nc%10c9)c9c(N)ncnc98)ccc7C6)CC5)CC4)nc3)[C@H](OC)C2)C[C@@H](O)[C@H](C)/C=C(\C)[C@@H](O)[C@@H](OC)C(=O)[C@H](C)C[C@H](C)/C=C/C=C/C=C/1C [Example 132] | < 1 nM | < 3.16 nM | 3.16 to 31.6 nM |
| CO[C@H]1C[C@@H]2CC[C@@H](C)[C@@](O)(O2)C(=O)C(=O)N2CCCC[C@H]2C(=O)O[C@H]([C@H](C)C[C@@H]2CC[C@@H](OC(=O)NCc3cnc(N4CCN(C(=O)CCOCCN5CCN(C(=O)CCC(=O)N6CCc7cc(Cn8nc(-c9ccc%10oc(N)nc%10c9)c9c(N)ncnc98)ccc7C6)CC5)CC4)nc3)[C@H](OC)C2)C[C@@H](OC)[C@H](C)/C=C(\C)[C@@H](O)[C@@H](OC)C(=O)[C@H](C)C[C@H](C)/C=C/C=C/C=C/1C [Example 133] | < 1 nM | < 3.16 nM | 3.16 to 31.6 nM |
| CO[C@H]1C[C@@H]2CC[C@@H](C)[C@@](O)(O2)C(=O)C(=O)N2CCCC[C@H]2C(=O)O[C@H]([C@H](C)C[C@@H]2CC[C@@H](OC(=O)NCc3cnc(N4CCN(C(=O)CCOCCN5CCN(c6ncc(C(=O)N7CCc8cc(Cn9nc(-c%10ccc%11oc(N)nc%11c%10)c%10c(N)ncnc%109)ccc8C7)cn6)CC5)[C@@H](C(=O)O)C4)nc3)[C@H](OC)C2)C[C@@H](OC)[C@H](C)/C=C(\C)[C@@H](O)[C@@H](OC)C(=O)[C@H](C)C[C@H](C)/C=C/C=C/C=C/1C [Example 134] | < 1 nM | < 3.16 nM | > 1000 nM |
| CO[C@H]1C[C@@H]2CC[C@@H](C)[C@@](O)(O2)C(=O)C(=O)N2CCCC[C@H]2C(=O)O[C@H]([C@H](C)C[C@@H]2CC[C@@H](OC(=O)NCc3cnc(N4CCN(C(=O)CCOCCN5CCN(c6ncc(C(=O)N7CCc8cc(Cn9nc(-c%10cnc%11[nH]ccc%11c%10)c%10c(N)ncnc%109)ccc8C7)cn6)CC5)[C@@H](C(=O)O)C4)nc3)[C@H](OC)C2)CC(=O)[C@H](C)/C=C(\C)[C@@H](O)[C@@H](OC)C(=O)[C@H](C)C[C@H](C)/C=C/C=C/C=C/1C [Example 135] | < 1 nM | > 1000 nM | > 1000 nM |
| CO[C@H]1C[C@@H]2CC[C@@H](C)[C@@](O)(O2)C(=O)C(=O)N2CCCC[C@H]2C(=O)O[C@H]([C@H](C)C[C@@H]2CC[C@@H](O)[C@H](OC)C2)CC(=O)[C@H](C)/C=C(\C)[C@@H](OC(=O)NCc2cnc(N3CCN(C(=O)CCOCCN4CCN(c5ncc(C(=O)N6CCc7cc(Cn8nc(-c9ccc%10oc(N)nc%10c9)c9c(N)ncnc98)ccc7C6)cn5)CC4)CC3)nc2)[C@@H](OC)C(=O)[C@H](C)C[C@H](C)/C=C/C=C/C=C/1C [Example 136] | < 1 nM | 3.16 to 31.6 nM | 3.16 to 31.6 nM |
| CO[C@H]1C[C@@H]2CC[C@@H](C)[C@@](O)(O2)C(=O)C(=O)N2CCCC[C@H]2C(=O)O[C@H]([C@H](C)C[C@@H]2CC[C@@H](OC(=O)NCc3cnc(N4CCN(C(=O)CCOCCN5CCN(c6ncc(C(=O)N7CCc8cc(Cn9nc(-c%10ccc%11oc(N)nc%11c%10)c%10c(N)ncnc%109)ccc8C7)cn6)CC5)CC4)nc3)[C@H](OC)C2)C[C@H](N=[N+]=[N-])[C@H](C)/C=C(\C)[C@@H](O)[C@@H](OC)C(=O)[C@H](C)C[C@H](C)/C=C/C=C/C=C/1C [Example 137] | < 1 nM | < 3.16 nM | 3.16 to 31.6 nM |
| CO[C@H]1C[C@@H]2CC[C@@H](C)[C@@](O)(O2)C(=O)C(=O)N2CCCC[C@H]2C(=O)O[C@H]([C@H](C)C[C@@H]2CC[C@@H](OC(=O)NCc3cnc(N4CCN(c5ncc(C(=O)N6CCN(c7ncc(C(=O)NCCCCn8nc(-c9ccc%10oc(N)nc%10c9)c9c(N)ncnc98)cn7)CC6)cn5)CC4)nc3)[C@H](OC)C2)CC(=O)[C@H](C)/C=C(\C)[C@@H](O)[C@@H](OC)C(=O)[C@H](C)C[C@H](C)/C=C/C=C/C=C/1C [Example 138] | < 1 nM | < 3.16 nM | < 3.16 nM |
| CO[C@H]1C[C@@H]2CC[C@@H](C)[C@@](O)(O2)C(=O)C(=O)N2CCCC[C@H]2C(=O)O[C@H]([C@H](C)C[C@@H]2CC[C@@H](OC(=O)NCc3cnc(N4CCN(c5ncc(C(=O)N6CCN(c7ncc(C(=O)N8CCc9cc(Cn%10nc(-c%11ccc%12oc(N)nc%12c%11)c%11c(N)ncnc%11%10)ccc9C8)cn7)CC6)cn5)CC4)nc3)[C@H](OC)C2)CC(=O)[C@H](C)/C=C(\C)[C@@H](O)[C@@H](OC)C(=O)[C@H](C)C[C@H](C)/C=C/C=C/C=C/1C [Example 139] | < 1 nM | < 3.16 nM | 31.6 to 1000 nM |
| CO[C@H]1C[C@@H]2CC[C@@H](C)[C@@](O)(O2)C(=O)C(=O)N2CCCC[C@H]2C(=O)O[C@H]([C@H](C)C[C@@H]2CC[C@@H](OC(=O)NCc3cnc(N4CCN(c5ncc(C(=O)N6CCN(c7ncc(C(=O)N8CCc9cc(Cn%10nc(-c%11cnc%12[nH]ccc%12c%11)c%11c(N)ncnc%11%10)ccc9C8)cn7)CC6)cn5)CC4)nc3)[C@H](OC)C2)CC(=O)[C@H](C)/C=C(\C)[C@@H](O)[C@@H](OC)C(=O)[C@H](C)C[C@H](C)/C=C/C=C/C=C/1C [Example 140] | 10 to 1000 nM | 31.6 to 1000 nM | > 1000 nM |
